# Data taken from US20020111336A1, “Topical composition” (priority 2000, published 2002).
# Test: Storage stability of the gel formulation containing calcipotriol and betamethasone dipropionate
# Assay type: physicochemical
# Conditions: gel formulation of Example 1; for BDP Kvant.: content of BDP; for Calcipotri. Kvant.: content of calcipotriol, in µg/g
# Method: To produce 1 kg of gel formulation, 30 g of hydrogenated castor oil was melted together with 749 g of heptamethylnonane at 85-90° C. and cooled with homogenisation to about 60° C. The mixture was then cooled to 25-30° C. with stirring. 643 mg of betamethasone dipropionate was suspended in 50 g of heptamethylnonane and added to the homogenised gel base. 52.2 mg of calcipotriol hydrate or 50 mg of calcipotriol was dissolved in 170 g polyoxypropylene-15-stearyl ether and added to the mixture of the other ingredients, and the formulation was homogenised to ensure a homogenous distribution of the active components. The resulting gel formulation was stable when stored at 40° C. for 3 months, indicating a shelf life of at least 2 years at room temperature.
% FOS (40° C. 1 month),BDP Kvant. (40° C. 1 month),% FOS (40° C. 3 months),BDP Kvant. (40° C. 3 months),% FOS (Start 5°C./1 month),% Epi (40° C. 1 month),Calcipotri. Kvant. (40° C. 1 month),% Epi (40° C. 3 months),Calcipotri. Kvant. (40° C. 3 months),% Epi (Start 5°C./1 month),SMILES
0.91%,0.634 mg/g,1.02%,0.642 mg/g,0.23%,–,–,–,–,–,"CCC(=O)OCC(=O)[C@@]1(OC(=O)CC)[C@@H](C)C[C@H]2[C@@H]3CCC4=CC(=O)C=C[C@]4(C)[C@@]3(F)[C@@H](O)C[C@@]21C [BDP, betamethasone dipropionate]"
1.52%,–,1.33%,–,1.59%,0.66%,50.16,0.8%,50.0,0.62%,"C=C1/C(=C\C=C2/CCC[C@]3(C)[C@@H]([C@H](C)/C=C/[C@@H](O)C4CC4)CC[C@@H]23)C[C@@H](O)C[C@@H]1O [Calcipotri., calcipotriol]"
